Target: T1, Aromatase (Homo sapiens, UniProt P11511)
T1 sequence (P11511 whole entry): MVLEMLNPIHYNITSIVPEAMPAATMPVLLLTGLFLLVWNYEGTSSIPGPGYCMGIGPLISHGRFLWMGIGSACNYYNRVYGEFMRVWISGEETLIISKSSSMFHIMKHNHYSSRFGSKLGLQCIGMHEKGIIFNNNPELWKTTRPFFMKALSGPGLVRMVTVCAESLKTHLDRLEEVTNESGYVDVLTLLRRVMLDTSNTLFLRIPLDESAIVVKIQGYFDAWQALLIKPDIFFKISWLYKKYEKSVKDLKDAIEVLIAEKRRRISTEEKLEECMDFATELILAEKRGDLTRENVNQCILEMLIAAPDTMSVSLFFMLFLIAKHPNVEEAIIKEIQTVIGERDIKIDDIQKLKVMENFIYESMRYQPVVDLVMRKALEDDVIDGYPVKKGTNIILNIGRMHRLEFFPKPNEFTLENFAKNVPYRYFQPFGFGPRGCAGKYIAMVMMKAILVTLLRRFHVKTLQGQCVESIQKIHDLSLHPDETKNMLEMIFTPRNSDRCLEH

O=c1c(-c2ccc(O)cc2)coc2cc(O)cc(O)c12 [GENISTEIN]
Ki: 123 µM

— ChEMBL document CHEMBL1138663, “Synthesis and aromatase inhibitory activity of novel pyridine-containing isoflavones” (J Med Chem, 2004)
